Data taken from US10329270B2, “Heteroaryl compounds as BTK inhibitors and uses thereof” (Merck Patent GmbH, priority 2013, dated 2019).
Structures can show the parent of a compound that is named as a salt.

Target: T1, full-length human BTK (Homo sapiens, UniProt Q06187)
T1 construct: 2.5× stocks of full-length human BTK (08-080); purchased CarnaBio USA, Inc., Natick, Mass; 08-080
Assay: Assay A: BTK IC50 Enzyme Assay (microfluidic off-chip mobility shift kinase assay)
Assay type: biochemical
Conditions: full-length human BTK, kinKDR peptide substrate, incubated 90 min at 27 C; read-out: Assay A (Time Dependent BTK Enzyme Assay IC50)
Outline: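 Off-chip microfluidic mobility shift assay with full-length human BTK; phosphorylated and unphosphorylated peptide substrate were separated by charge/mass on a LabChip 3000.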

T1 sequence (Q06187 whole entry): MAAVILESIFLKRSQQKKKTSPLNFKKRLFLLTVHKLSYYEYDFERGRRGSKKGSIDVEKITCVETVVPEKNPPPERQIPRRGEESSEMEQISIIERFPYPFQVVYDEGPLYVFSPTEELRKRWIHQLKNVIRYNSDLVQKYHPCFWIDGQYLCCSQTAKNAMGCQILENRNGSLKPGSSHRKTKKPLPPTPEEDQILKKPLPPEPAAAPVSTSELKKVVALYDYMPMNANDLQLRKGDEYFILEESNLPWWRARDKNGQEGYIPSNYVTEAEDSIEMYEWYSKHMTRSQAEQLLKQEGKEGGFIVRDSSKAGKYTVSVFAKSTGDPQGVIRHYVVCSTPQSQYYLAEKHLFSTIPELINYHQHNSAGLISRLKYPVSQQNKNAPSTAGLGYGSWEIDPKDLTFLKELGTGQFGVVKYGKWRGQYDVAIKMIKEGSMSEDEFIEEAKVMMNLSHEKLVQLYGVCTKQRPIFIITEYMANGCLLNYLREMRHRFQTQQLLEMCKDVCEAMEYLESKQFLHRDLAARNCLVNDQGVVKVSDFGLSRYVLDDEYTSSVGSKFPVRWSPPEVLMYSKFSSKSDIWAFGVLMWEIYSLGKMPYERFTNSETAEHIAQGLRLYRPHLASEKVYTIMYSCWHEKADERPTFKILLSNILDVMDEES

Row | SMILES | IC50
1 | N#CN1CCC(Nc2cnc(Oc3ccc(Oc4ccccc4)cc3)c(C(N)=O)c2)CC1 [Compound 246, 5-[(1-cyanopiperidin-4-yl)amino]-2-(4-phenoxyphenoxy)pyridine-3-carboxamide] | > 5 µM
2 | N#C/C(=C\C1CC1)C(=O)N1C[C@@H]2C[C@H]1CN2c1ccc(C(N)=O)c(Oc2ccc(Oc3ccccc3)cc2)n1 [Compound 190, 6-((1S,4S)-5-((E)-2-cyano-3-cyclopropylacryloyl)-2,5-diazabicyclo[2.2.1]heptan-2-yl)-2-(4-phenoxyphenoxy)nicotinamide] | 1 to 5 µM
3 | CN(C)C/C=C/C(=O)N[C@@H]1CCN(c2ncc(C(N)=O)c(N)n2)C1 [Compound 146, 4-Amino-2-[(R)-3-((E)-4-dimethylamino-but-2-enoylamino)-pyrrolidin-1-yl]-pyrimidine-5-carboxylic acid amide] | > 5 µM
4 | C/C=C/C(=O)N1CCCC(Nc2cnc(Oc3ccc(Oc4cccc(F)c4)cc3)c(C(N)=O)c2)C1 (centres unmarked) [Compound 231, (E)-5-((1-(but-2-enoyl)piperidin-3-yl)amino)-2-(4-(3-fluorophenoxy)phenoxy)nicotinamide] | 1 to 5 µM
5 | C/C=C/C(=O)N1CCC(c2cnc(Oc3ccc(Oc4cccc(F)c4)cc3)c(C(N)=O)c2)C1 (centres unmarked) [Compound 167, 5-[1-((E)-But-2-enoyl)-pyrrolidin-3-yl]-2-[4-(3-fluoro-phenoxy)-phenoxy]-nicotinamide] | 1 to 5 µM
6 | N#CN1CCC[C@H](c2cnc(Oc3ccc(Oc4ccc(F)cc4F)cc3)c(C(N)=O)c2)C1 [Compound 248, 5-[(3R)-1-cyanopiperidin-3-yl]-2-[4-(2,4-difluorophenoxy)phenoxy]pyridine-3-carboxamide] | 1 to 5 µM
7 | C=CC(=O)N1CCC2(CC(Nc3ncc(C(N)=O)c(Oc4ccc(Oc5ccccc5)cc4)n3)C2)C1 (centres unmarked) [Compound 182, 2-((6-acryloyl-6-azaspiro[3.4]octan-2-yl)amino)-4-(4-phenoxyphenoxy)pyrimidine-5-carboxamide] | 1 to 5 µM
8 | C/C=C/C(=O)NC1CCN(c2cnc(Oc3ccc(Oc4ccccc4)cc3)c(C(N)=O)c2)C1 (centres unmarked) [Compound 199, 5-[3-((E)-But-2-enoylamino)-pyrrolidin-1-yl]-2-(4-phenoxy-phenoxy)-nicotinamide] | > 5 µM
9 | C=CC(=O)Nc1ccc(-c2ccc(C(N)=O)c(Oc3ccc(Oc4ccccc4)cc3)n2)cc1 [Compound 159, 6-(4-acrylamidophenyl)-2-(4-phenoxyphenoxy)nicotinamide] | > 5 µM
10 | C=CC(=O)N[C@H]1CCN(c2ccc(C(N)=O)c(Oc3ccc(C(=O)Nc4ccccc4)cc3)n2)C1 [Compound 96, (S)-6-(3-acrylamidopyrrolidin-1-yl)-2-(4-(phenylcarbamoyl)phenoxy)nicotinamide] | 1 to 5 µM
11 | C=CC(=O)NC1CCCN(c2ncc(C(N)=O)c(Oc3ccc(Oc4ccccc4)cc3)n2)C1 (centres unmarked) [Compound 204, 2-(3-acrylamidopiperidin-1-yl)-4-(4-phenoxyphenoxy)pyrimidine-5-carboxamide] | 1 to 5 µM
12 | C=CC(=O)N1C[C@@H]2CCC[C@H]1CN(c1ncc(C(N)=O)c(Oc3ccc(Oc4ccccc4)cc3)n1)C2 [Compound 208, 2-((1 S,5R)-9-acryloyl-3,9-diazabicyclo[3.3.2]decan-3-yl)-4-(4-phenoxyphenoxy)pyrimidine-5-carboxamide] | 0.1 to 1 µM
13 | N#CN1CCC(Nc2cnc(Oc3ccc(Oc4ccccc4)cc3)c(C(N)=O)c2)C1 (centres unmarked) [Compound 243, 5-[(1-cyanopyrrolidin-3-yl)amino]-2-(4-phenoxyphenoxy)pyridine-3-carboxamide] | 0.1 to 1 µM
14 | C/C=C/C(=O)N1CC2CN(c3cnc(Oc4ccc(Oc5ccccc5)cc4)c(C(N)=O)c3)CC2C1 (centres unmarked) [Compound 217, 5-[5-((E)-But-2-enoyl)-hexahydro-pyrrolo[3,4-c]pyrrol-2-yl]-2-(4-phenoxy-phenoxy)-nicotinamide] | > 5 µM
15 | C=CC(=O)N1CC=C(c2ccc(C(N)=O)c(Oc3ccc(Oc4ccccc4)cc3)n2)C1 [Compound 88, 6-(1-acryloyl-2,5-dihydro-1H-pyrrol-3-yl)-2-(4-phenoxyphenoxy)nicotinamide] | 0.1 to 1 µM
16 | C/C=C/C(=O)NC1CCN(c2cnc(Oc3ccc(Oc4cccc(F)c4)cc3)c(C(N)=O)c2)CC1 [Compound 214, 4-((E)-But-2-enoylamino)-6′-[4-(3-fluoro-phenoxy)-phenoxy]-3,4,5,6-tetrahydro-2H-[1,3′]bipyridinyl-5′-carboxylic acid amide] | > 5 µM

Continued, values first:

Row | IC50 | SMILES
17 | < 0.1 µM | C=CC(=O)N[C@H]1CCN(c2ccc(C(N)=O)c(Nc3ccc(N4CCCCC4)nc3)n2)C1 [Compound 39, (S)-6-(3-acrylamidopyrrolidin-1-yl)-2-((6-(piperidin-1-yl)pyridin-3-yl)amino)nicotinamide]
18 | < 0.1 µM | C=CC(=O)N[C@H]1CCN(c2ccc(C(N)=O)c(Oc3ccc(Oc4cccc(C#N)c4)cc3)n2)C1 [Compound 79, (S)-6-(3-acrylamidopyrrolidin-1-yl)-2-(4-(3-cyanophenoxy)phenoxy)nicotinamide]
19 | 0.1 to 1 µM | C=CC(=O)N[C@H]1CCN(c2nc(Nc3ccc(C(=O)NC(C)(C)C)cc3)c(C(N)=O)cc2F)C1 [Compound 5, 6-((S)-3-Acryloylamino-pyrrolidin-1-yl)-2-(4-tert-butylcarbamoyl-phenylamino)-5-fluoro-nicotinamide]
20 | < 0.1 µM | C=CC(=O)N[C@H]1CCN(c2ccc(C(N)=O)c(Nc3ccc(Oc4ccccc4)cc3)n2)C1 [Compound 54, 6-((S)-3-Acryloylamino-pyrrolidin-1-yl)-2-(4-phenoxy-phenylamino)-nicotinamide]
21 | 0.1 to 1 µM | C=CC(=O)N[C@@H]1CCN(c2ncc(C(N)=O)c(N)n2)C1 [Compound 144, 2-((R)-3-Acryloylamino-pyrrolidin-1-yl)-4-amino-pyrimidine-5-carboxylic acid amide]
22 | < 0.1 µM | C=CC(=O)N[C@H]1CCN(c2ccc(C(N)=O)c(Oc3ccc(Oc4cccc(F)c4)cc3)n2)C1 [Compound 73, (S)-6-(3-acrylamidopyrrolidin-1-yl)-2-(4-(3-fluorophenoxy)phenoxy)nicotinamide]
23 | 0.1 to 1 µM | C=CC(=O)N1CCCC(c2ccc(C(N)=O)c(Oc3ccc(Oc4ccccc4)cc3)n2)C1 (centres unmarked) [Compound 87, 1′-Acryloyl-6-(4-phenoxy-phenoxy)-1′,2′,3′,4′,5′,6′-hexahydro-[2,3′]bipyridinyl-5-carboxylic acid amide]
24 | < 0.1 µM | C=CC(=O)NCc1cncc(-c2ccc(C(N)=O)c(Oc3ccc(Oc4ccccc4)cc3)n2)c1 [Compound 84, 5′-(acrylamidomethyl)-6-(4-phenoxyphenoxy)-[2,3′-bipyridine]-5-carboxamide]
25 | < 0.1 µM | C=CC(=O)Nc1cccc(-c2ccc(C(N)=O)c(Oc3ccc(Oc4ccccc4)cc3)n2)c1 [Compound 80, 6-(3-acrylamidophenyl)-2-(4-phenoxyphenoxy)nicotinamide]
26 | < 0.1 µM | C=CC(=O)N1CCC(c2ccc(C(N)=O)c(Nc3ccc(C(=O)N4CCN(C(=O)CCCCN)CC4)cc3)n2)CC1 [Compound 29, 1′-Acryloyl-6-{4-[4-(5-amino-pentanoyl)-piperazine-1-carbonyl]-phenylamino}-1′,2′,3′,4′,5′,6′-hexahydro-[2,4′]bipyridinyl-5-carboxylic acid amide hydrochloride]
27 | 0.1 to 1 µM | C=CC(=O)N[C@H]1CCN(c2ccc(C(N)=O)c(Oc3ccc(NC(=O)c4ccccc4)cc3)n2)C1 [Compound 95, (S)-6-(3-acrylamidopyrrolidin-1-yl)-2-(4-benzamidophenoxy)nicotinamide]
28 | < 0.1 µM | C=CC(=O)N[C@H]1CCN(c2ccc(C(N)=O)c(Nc3ccc(N4CC(C)OC(C)C4)cc3)n2)C1 (stereo partly drawn) [Compound 33, 6-((S)-3-Acryloylamino-pyrrolidin-1-yl)-2-[4-(2,6-dimethyl-morpholin-4-yl)-phenylamino]-nicotinamide]
29 | < 0.1 µM | C=CC(=O)N1CCn2ncc(-c3cnc(C(N)=O)c(NC(C)=O)c3)c2C1 [Compound 132]
30 | < 0.1 µM | C=CC(=O)N[C@H]1CCN(c2ccc(C(N)=O)c(Nc3ccc(N4CC(C)OC(C)C4)c(F)c3)n2)C1 (stereo partly drawn) [Compound 27, 6-((S)-3-Acryloylamino-pyrrolidin-1-yl)-2-[4-(2,6-dimethyl-morpholin-4-yl)-3-fluoro-phenylamino]-nicotinamide]
31 | 0.1 to 1 µM | C=CC(=O)N[C@H]1CCN(c2ncc(C(N)=O)c(Oc3ccc(Oc4ccccc4)cc3)n2)C1 [Compound 192, (S)-2-(3-acrylamidopyrrolidin-1-yl)-4-(4-phenoxyphenoxy)pyrimidine-5-carboxamide]
32 | < 0.1 µM | C=CC(=O)N1CCC(c2ccc(C(N)=O)c(Nc3ccc(C)nc3)n2)CC1 [Compound 49]
33 | < 0.1 µM | C=CC(=O)N1CCC(c2ccc(C(N)=O)c(Nc3ccc(C(=O)N4CCN(C(=O)CCCCNC(=O)OC(C)(C)C)CC4)cc3)n2)CC1 [Compound 19]
34 | 0.1 to 1 µM | C=CC(=O)N1CC[C@@H](N(C)c2ccc(C(N)=O)c(Oc3ccc(Oc4ccccc4)cc3)n2)C1 [Compound 187, 6-[((R)-1-Acryloyl-pyrrolidin-3-yl)-methyl-amino]-2-(4-phenoxy-phenoxy)-nicotinamide]
35 | 0.1 to 1 µM | C=CC(=O)N[C@H]1CCN(c2cc(Oc3cnn(Cc4ccccc4)c3)c(C(N)=O)cn2)C1 [Compound 115]
36 | < 0.1 µM | C=CC(=O)N[C@@H]1CCCN(c2ccc(C(N)=O)c(Nc3ccc(C(=O)N4CCOCC4)cc3)n2)C1 [Compound 205, (R)-3-Acryloylamino-6′-[4-(morpholine-4-carbonyl)-phenylamino]-3,4,5,6-tetrahydro-2H-[1,2′]bipyridinyl-5′-carboxylic acid amide]
37 | < 0.1 µM | C=CC(=O)N[C@@H]1CCN(c2ccc(C(N)=O)c(Nc3ccc(C(=O)N4CCOCC4)cc3)n2)C1 [Compound 47, 6-((R)-3-Acryloylamino-pyrrolidin-1-yl)-2-[4-(morpholine-4-carbonyl)-phenylamino]-nicotinamide]
38 | < 0.1 µM | C=CC(=O)N[C@H]1CCN(c2ccc(C(N)=O)c(Nc3ccc(C(=O)N4CCCCC4)cc3)n2)C1 [Compound 21, 6-((S)-3-Acryloylamino-pyrrolidin-1-yl)-2-[4-(piperidine-1-carbonyl)-phenylamino]-nicotinamide]
